{
  "source": "paper PMC5640650",
  "about": "“NatD promotes lung cancer progression by preventing histone H4 serine phosphorylation to activate Slug expression” (Nature Communications, 2017)",
  "key": {"A549 cells": {"system": "A549 cells", "test": "Orthotopic implantation in nude mice, A549 cells", "assay_type": "in vivo, human", "settings": "pleural cavity, 21 days, n = 6, vs Scr", "protocol": "All animal care and handling procedures were performed in accordance with the National Institutes of Health Guide for the Care and Use of Laboratory Animals, and were approved by the Institutional Review Board of Nanjing University (Nanjing, China). Female SCID mice and C57BL/6 mice (6–8 week old) were purchased from the Model Animal Research Center of Nanjing University (Nanjing, China), and were maintained under specific pathogen-free conditions at Nanjing University. The sample size was chosen with adequate power on the basis of the literature and our previous experience[46] and for each experiment it is indicated in the figure legend. […] Lung nodules and progression were monitored and quantified using the bioluminescence system (Caliper IVIS Lumina XR) or by counting under a dissecting microscope. […] Mice were killed at day 28 or day 30 to collect lungs, and lung nodules in serial sections were quantified microscopically. […] Lung nodules and progression were monitored and quantified using the bioluminescence system (Caliper IVIS Lumina XR). Mice were killed at day 14 or day 21 to collect lungs, and lung nodules in serial sections were quantified microscopically. […]\nSupplementary Figure 9. […] (right) Relative BLI signals of lung tumors of corresponding mice (n = 6 for each group) recorded on day 3 and day 21. […]"}, "CK2α": {"system": "CK2α", "test": "CK2α localization by confocal immunofluorescence / western blot, H1299 cells", "assay_type": "cell-based, human", "settings": "NatD knockdown H1299 cells", "text": "Fig. 7 Downregulation of Nt-acetylation of histone H4 facilitates nuclear accumulation of CK2α and its binding to histone H4 in lung cancer cells. a Representative confocal scanning images of CK2α localization in Scr and H1299 cells (left panel). The staining intensity of CK2α was quantified by software ImageJ from NIH (right diagram). Scale bars, 5 μm. […] Equal peptide biotinylated on C terminus is shown by dot blot analysis with streptavidin (middle panel). […] IgG served as a negative control. Results are shown as mean ± s.d. from three independent experiments; two-tailed Student’s t-test, **P < 0.01 compared with the indicated control. g Quantitative real-time PCR analysis of mRNA levels of CK2α and Slug normalized to GAPDH in Scr and NatD-KD H1299 cells in the absence or presence of siRNA to CK2α. NC, siRNA mimics negative control. […]\nFor immunofluorescence assays, cells were fixed with 4% formaldehyde for 5 min at room temperature. […] Sub-cellular distribution of CK2α was analyzed by confocal scanning microscopy (Olympus FV10i). The relative intracellular distribution of CK2α in each experimental sample was calculated as the nuclear to total (cytoplasmic + nuclear) ratio by measuring the intensity of the signals in each cellular compartment with the aid of ImageJ software (NIH). […]"}},
  "data": [
    {"substance": "NatD-KD2: Human NatD shRNA KD2: 5′-GGTTGAATGTCTCCATTGA-3′, lentiviral (shRNA lentiviral)", "values": [
      {"measurement": "migration and invasion, orthotopic model", "setting": "A549 cells", "result": "significantly reduced"},
      {"measurement": "CK2α in the cytoplasm (western blot)", "setting": "CK2α", "result": "no detectable levels"},
      {"measurement": "CK2α localized in the nucleus", "setting": "CK2α; more than 30 cells (Scr: about 70%)", "result": "~100", "unit": "%"}
    ]}
  ]
}
